Data: patent US20020041897A1, “Compositions for sustained release of antineoplastic taxanes, and methods of making and using the same” (priority 2000, published 2002)

Assay: Plasma concentrations of paclitaxel as a function of dose after intraperitoneal administration to dogs
Settings: dog
Procedure: (30%) microspheres were administered intraperitoneally to dogs at doses of 90, 120, 150, 180 and 210 mg/kg; paclitaxel was administered at doses of 9 mg/kg and 12 mg/kg to other dogs. Each dose group comprised one female dog. Plasma samples were taken from each dog at various time points. Samples were analyzed using a LC/MS/MS method. Results are depicted in FIG. 10.
Following administration of 90 and 120 mg/kg doses of […] (30%) microspheres, plasma samples were collected through 63 days. At doses of 150 and 180 mg/kg, the last sample was obtained at 35 days. The last sampling time for the 210 mg/kg dose was 28 days.

Structure (SMILES): CC(=O)O[C@H]1C(=O)[C@@]2(C)[C@H]([C@H](OC(=O)c3ccccc3)[C@]3(O)C[C@H](OC(=O)[C@H](O)[C@@H](NC(=O)c4ccccc4)c4ccccc4)C(C)=C1C3(C)C)[C@]1(OC(C)=O)CO[C@@H]1C[C@@H]2O [paclitaxel]
- toxicity outcome (in vivo, ip, 12 mg/kg): euthanized before the completion of the study due to toxicity
- decline of plasma paclitaxel concentration (intraperitoneal, 9 mg/kg): declined in a biphasic manner
- time at which maximum plasma paclitaxel concentration was reached (intraperitoneal, 9 mg/kg): 0.5 days
- time post dose beyond which plasma paclitaxel could not be detected (intraperitoneal, 9 mg/kg): ≤ 7 days
